Measurements from US20050245738A1, “Stable bioavailable crystalline form or cefdinir and a process for the preparation thereof” (LUPIN LTD, priority 2004, published 2005).

Legend:
[1] = Dissolution rate in 0.07 N Hydrochloric acid; assay type: physicochemical
[2] = 0.07 N Hydrochloric acid, cited from earlier work
[3] = accelerated stability tests; cited from earlier work
[4] = Accelerated storage stability of cefdinir, Aluminum pouch, 40 ± 2° C., Rh 75 ± 5%; assay type: physicochemical
[5] = After 30 days at 40 ± 2° C., Rh 75 ± 5%
[6] = After 60 days at 40 ± 2° C., Rh 75 ± 5%
[7] = After 180 days at 40 ± 2° C., Rh 75 ± 5%

SMILES	IDR: Intrinsic Dissolution Rate [1] [mg/cm^2/min]	Dissolution Profile ([1]; 15 Mins) [mg/cm^2]	Dissolution Profile ([1]; 30 Mins) [mg/cm^2]	Dissolution Profile ([1]; 45 Mins) [mg/cm^2]	Dissolution Profile ([1]; 60 Mins) [mg/cm^2]	Dissolution Profile ([1]; 75 Mins) [mg/cm^2]	Dissolution Profile ([1]; 90 Mins) [mg/cm^2]	Dissolution Profile ([1]; 105 Mins) [mg/cm^2]	Dissolution Profile ([1]; 120 Mins) [mg/cm^2]	further results
C=CC1=C(C(=O)O)N2C(=O)[C@@H](NC(=O)/C(=N\O)c3csc(N)n3)[C@H]2SC1 [Cefdinir Prepared as per the Method of Dobfar's US Applicati] [reference compound]	0.1392	4.59	6.01	8.70	10.42	12.23	14.94	16.79	19.02	solubility compared with reference “Crystal A” ([2]; after the first hour): more soluble; dissolution rate compared with reference “Crystal A” ([2]; initially): initially slower; stability compared with reference “Crystal A” [3]: at least equal to that of the reference “Crystal A”
C=CC1=C(C(=O)O)N2C(=O)[C@@H](NC(=O)/C(=N\O)c3csc(N)n3)[C@H]2SC1 [(Z)-7-[2-(2-amino-4-thiazolyl)-2-hydroxyiminoacetamido]-3-vinyl-3-cephem-4-carboxylic acid]	0.1831	4.15	8.26	10.31	14.66	16.29	19.47	22.17	23.01	dissolution rate compared with reference “Crystal A” and material of U.S. Application No. 2003/0204082 A [1]: superior; thermal stability ([4]; 40° C. (75% Rh)): excellent thermal stability; Assay by HPLC (% on Dry Basis) [4, 5]: 97.92 % on Dry Basis; Water Content (%) [4, 5]: 7.46%; pH (1% Aqueous suspension) [4, 5]: 3.46; Assay by HPLC (% on Dry Basis) [4, 6]: 97.38 % on Dry Basis; Water Content (%) [4, 6]: 7.27%; pH (1% Aqueous suspension) [4, 6]: 3.45; Assay by HPLC (% on Dry Basis) [4, 7]: 96.65 % on Dry Basis; Water Content (%) [4, 7]: 7.60%; pH (1% Aqueous suspension) [4, 7]: 3.55; Assay by HPLC (% on Dry Basis) ([4]; Initial): 98.37 % on Dry Basis; Water Content (%) ([4]; Initial): 7.05%; pH (1% Aqueous suspension) ([4]; Initial): 3.40
